Measurements: ChEMBL document CHEMBL1201862, “PubChem BioAssay data set” (2004)
Calls of active or inactive are those of the source.

Key:
[1] = target: Peroxisome proliferator-activated receptor gamma/Nuclear receptor coactivator 1 (Homo sapiens, UniProt P37231); type: functional;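 further: agonist potency as compounds enhance coactivator SRC-1 recruitment to PPARgamma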
[2] = target: Peroxisome proliferator-activated receptor gamma/Nuclear receptor coactivator 3 (Homo sapiens, UniProt P37231); type: functional;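 further: agonist potency for raising coactivator recruitment to the receptor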
[3] = target: Peroxisome proliferator-activated receptor gamma/Nuclear receptor coactivator 2 (Homo sapiens, UniProt P37231); type: functional;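 further: agonist potency for raising coactivator recruitment to the receptor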
[4] = THP-1 cell cytotoxicity, dose response, cytotoxicity control for non-replicating M. tuberculosis project (AID 489025); type: functional
[5] = Vero E6 cell cytotoxicity, dose response, cytotoxicity control for non-replicating M. tuberculosis project, secondary assay (AID 492998); type: functional, VeroE6; settings: Vero C1008
[6] = microbe, parasite or virus in culture; type: functional; settings: Mycobacterium tuberculosis
[7] = cells; type: functional
[8] = viability of HCT116 lacking mutant beta-catenin – cell-based, human colon tumor, dose response (AID 1045); type: functional;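 further: HCT116 colon tumor cells with beta catenin knocked out; cells exposed to compound for 60 hours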
[9] = viability of PTEN-deleted HCT116 cells – cell-based, HCT116 PTEN knockout, dose response (AID 1047); type: functional;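 further: HCT116 colon tumor cells with PTEN knocked out; cells exposed to compound for 60 hours before readout; potency for loss of cell viability measured by luminescence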
[10] = target: SUMO-activating enzyme (Homo sapiens, UniProt Q9UBT2); assay: blockers of UBC9-mediated SUMO conjugation – biochemical, AlphaScreen, SUMOylation inhibitor project, confirmation (AID 2018); type: functional
[11] = target: Ion channel NompC (Danio rerio, UniProt Q7T1G6); assay: Fluorescence counterscreen assay for TRPML3 agonists: dose response cell-based high-throughput screening assay to identify agonists of the transient receptor potential channel N1 (TRPN1). [Related pubchem assays: 1526, 1424, 1448 ]; type: functional
[12] = target: T1, Mucolipin-3 (Homo sapiens, UniProt Q8TDD5); assay: Dose response cell-based high-throughput screening assay for agonists of the transient receptor potential channel ML3 (TRPML3). [Related pubchem assays: 1526, 1424, 1448 ]; type: functional
T1 sequence (Q8TDD5 whole entry): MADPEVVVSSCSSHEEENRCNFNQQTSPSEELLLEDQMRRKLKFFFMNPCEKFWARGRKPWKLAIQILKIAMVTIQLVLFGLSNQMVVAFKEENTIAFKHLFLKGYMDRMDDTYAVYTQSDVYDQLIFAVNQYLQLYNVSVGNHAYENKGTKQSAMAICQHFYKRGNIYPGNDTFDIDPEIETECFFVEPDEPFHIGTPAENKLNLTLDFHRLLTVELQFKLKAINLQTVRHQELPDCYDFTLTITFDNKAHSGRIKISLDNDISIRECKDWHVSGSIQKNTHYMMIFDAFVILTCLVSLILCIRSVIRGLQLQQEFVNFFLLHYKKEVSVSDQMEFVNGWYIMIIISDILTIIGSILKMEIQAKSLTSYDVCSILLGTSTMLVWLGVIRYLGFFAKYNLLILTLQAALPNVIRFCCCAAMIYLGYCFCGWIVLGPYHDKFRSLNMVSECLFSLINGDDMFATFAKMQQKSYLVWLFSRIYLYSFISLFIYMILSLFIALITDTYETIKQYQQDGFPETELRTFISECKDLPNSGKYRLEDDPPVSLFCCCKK

[13] = target: Cytochrome P450 2C9 (Homo sapiens, UniProt P11712)
[14] = target: Cytochrome P450 3A4 (Homo sapiens, UniProt P08684);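 further: CYP3A4 tested as one member of a cytochrome P450 panel screen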
[15] = target: Cytochrome P450 2C19 (Homo sapiens, UniProt P33261); assay: Cytochrome panel assay with activity outcomes. Panel member name: p450-cyp2c19 Compounds with AC50 equal or less than 10 uM are considered active; type: functional; settings: read-out: AC50
[16] = NIH3T3 cell viability loss – ATP luminescence, mouse fibroblasts, counter-screen, dose response (AID 2010); type: functional, cell-based;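 further: cells exposed to compound for about 90 hours before reading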
[17] = Trypanosoma cruzi growth suppression in host cells – NIH3T3 host cells, beta-gal luminescence, confirmation (AID 2044); type: functional, cell-based;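 further: intracellular parasites grown in NIH/3T3 mouse fibroblasts as host cells; luminescent beta-galactosidase reporter signal from transgenic T. cruzi replicating inside host cells; inhibitors lower the luminescence signal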
[18] = system: BJ; assay: BJ-TERT-LT-ST fibroblast viability loss – cell-based, RAS-independent, luminescence, dose response (AID 1935); type: functional; settings: Homo sapiens;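 further: BJ fibroblasts immortalized with TERT plus LT and ST oncogenes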
[19] = system: BJ; assay: BJ-TERT fibroblast viability loss – cell-based, RAS-independent, luminescence, dose response (AID 1933); type: functional; settings: Homo sapiens
[20] = system: INS1; assay: INS-1E survival protection against cytokine death – cell-based, luminescence, retest, dose response (AID 449756); type: functional; settings: Rattus norvegicus;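 further: cell death triggered by IL-1 beta plus TNF-alpha plus IFN-gamma mixture; protective hits raise ATP signal compared with cytokine alone wells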
[21] = system: HEK293; assay: cells; type: functional, cell-based; settings: Homo sapiens
[22] = DRD fibroblast viability loss – cell-based, non-viral oncogenic, luminescence, dose response (AID 1934); type: functional; settings: Homo sapiens
[23] = system: Vero; assay: cells; type: functional; settings: Chlorocebus sabaeus
[24] = target: T2, Ubiquitin-conjugating enzyme E2 N (Homo sapiens, UniProt P61088); type: functional
T2 sequence (P61088 whole entry): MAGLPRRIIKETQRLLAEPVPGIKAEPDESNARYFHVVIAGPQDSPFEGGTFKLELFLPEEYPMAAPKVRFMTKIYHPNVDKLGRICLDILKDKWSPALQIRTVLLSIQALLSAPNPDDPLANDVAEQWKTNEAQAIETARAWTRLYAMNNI

[25] = system: HEK293; assay: cells; type: functional, cell-based; settings: Homo sapiens; remark: listed apart in the source
[26] = system: HEK293; assay: NOD2 signaling inhibitors in MDP-stimulated cells, cell-based, uHTS, luminescence (AID 2001); type: functional; settings: Homo sapiens
[27] = fluconazole-exposed Candida albicans growth modulators – fluorescence, retest, confirmation (AID 2467); type: functional, cell-based
[28] = NIH-3T3 fibroblast cytotoxicity, dose response, cytotoxicity control, cell-based, fluorescence, Alamar Blue, secondary assay (AID 2327); type: functional;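 further: NIH-3T3 mouse fibroblasts cultured with fluconazole at 8 µg/mL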
[29] = system: HEK293; assay: inhibition of NOD1-driven NF-kB reporter – cell-based, luminescence, uHTS, primary screen (AID 1578); type: functional; settings: Homo sapiens
[30] = system: Streptococcus; assay: GAS UMAA2166 growth inhibition – luminescence, BacTiterGlo, counter-screen for streptokinase expression inhibitor project, dose response (AID 1915); type: functional, organism-based;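 further: potency for reduction of bacterial viability or growth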
[31] = system: Streptococcus sp. 'group A'; assay: Streptococcus pyogenes SK(-)GAS viability under kanamycin – luminescence, BacTiterGlo, confirmation, counter-screen for streptokinase expression inhibitor project, dose response (AID 1900); type: functional, organism-based
[32] = target: Induced myeloid leukemia cell differentiation protein Mcl-1 (Homo sapiens, UniProt Q07820); type: functional
[33] = system: BJ; assay: cells; type: functional, cell-based; settings: Homo sapiens
[34] = target: T2, Ubiquitin-conjugating enzyme E2 N; type: functional; remark: listed apart in the source
[35] = target: T3, Bcl-2-related protein A1 (Mus musculus, UniProt Q07440); type: functional;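 further: confirmatory dose–response counterscreen on Bfl-1, used to check hits from a UBC13 polyubiquitin inhibitor campaign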
T3 sequence (Q07440 whole entry): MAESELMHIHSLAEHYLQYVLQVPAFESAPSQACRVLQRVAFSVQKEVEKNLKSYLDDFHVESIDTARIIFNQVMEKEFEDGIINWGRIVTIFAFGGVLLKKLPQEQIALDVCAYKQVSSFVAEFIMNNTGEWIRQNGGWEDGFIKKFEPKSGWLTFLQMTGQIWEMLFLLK

Cytochrome P450 3A4, sequence (P08684 whole entry): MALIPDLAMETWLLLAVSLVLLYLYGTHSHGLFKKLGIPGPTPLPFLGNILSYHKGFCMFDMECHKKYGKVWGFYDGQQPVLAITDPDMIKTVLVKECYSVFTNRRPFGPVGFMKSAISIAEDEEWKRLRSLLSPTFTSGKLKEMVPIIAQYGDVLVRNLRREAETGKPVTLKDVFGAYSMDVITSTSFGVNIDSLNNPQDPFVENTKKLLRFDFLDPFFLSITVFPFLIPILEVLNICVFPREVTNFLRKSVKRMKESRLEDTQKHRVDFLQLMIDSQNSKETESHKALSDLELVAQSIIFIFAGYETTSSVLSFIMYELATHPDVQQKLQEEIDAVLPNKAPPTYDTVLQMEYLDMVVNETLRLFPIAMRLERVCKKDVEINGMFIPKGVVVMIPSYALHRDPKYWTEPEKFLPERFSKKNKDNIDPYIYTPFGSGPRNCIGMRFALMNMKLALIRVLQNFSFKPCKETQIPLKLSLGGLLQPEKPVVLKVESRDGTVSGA
Peroxisome proliferator-activated receptor gamma/Nuclear receptor coactivator 1, sequence (P37231 whole entry): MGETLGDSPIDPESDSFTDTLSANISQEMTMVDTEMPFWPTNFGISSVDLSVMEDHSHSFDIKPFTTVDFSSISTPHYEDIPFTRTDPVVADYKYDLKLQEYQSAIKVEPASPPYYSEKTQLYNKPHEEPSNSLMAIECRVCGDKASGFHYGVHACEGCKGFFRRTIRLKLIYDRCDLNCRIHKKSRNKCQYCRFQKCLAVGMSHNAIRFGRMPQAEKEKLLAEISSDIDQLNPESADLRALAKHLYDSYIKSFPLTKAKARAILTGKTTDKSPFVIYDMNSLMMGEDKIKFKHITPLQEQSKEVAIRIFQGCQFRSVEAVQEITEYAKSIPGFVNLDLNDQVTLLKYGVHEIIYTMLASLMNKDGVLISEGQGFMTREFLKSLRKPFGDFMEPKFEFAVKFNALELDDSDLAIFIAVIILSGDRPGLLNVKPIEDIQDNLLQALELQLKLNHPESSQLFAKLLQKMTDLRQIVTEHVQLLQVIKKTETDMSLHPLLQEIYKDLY
Peroxisome proliferator-activated receptor gamma/Nuclear receptor coactivator 1, sequence (Q15788 whole entry, further chain): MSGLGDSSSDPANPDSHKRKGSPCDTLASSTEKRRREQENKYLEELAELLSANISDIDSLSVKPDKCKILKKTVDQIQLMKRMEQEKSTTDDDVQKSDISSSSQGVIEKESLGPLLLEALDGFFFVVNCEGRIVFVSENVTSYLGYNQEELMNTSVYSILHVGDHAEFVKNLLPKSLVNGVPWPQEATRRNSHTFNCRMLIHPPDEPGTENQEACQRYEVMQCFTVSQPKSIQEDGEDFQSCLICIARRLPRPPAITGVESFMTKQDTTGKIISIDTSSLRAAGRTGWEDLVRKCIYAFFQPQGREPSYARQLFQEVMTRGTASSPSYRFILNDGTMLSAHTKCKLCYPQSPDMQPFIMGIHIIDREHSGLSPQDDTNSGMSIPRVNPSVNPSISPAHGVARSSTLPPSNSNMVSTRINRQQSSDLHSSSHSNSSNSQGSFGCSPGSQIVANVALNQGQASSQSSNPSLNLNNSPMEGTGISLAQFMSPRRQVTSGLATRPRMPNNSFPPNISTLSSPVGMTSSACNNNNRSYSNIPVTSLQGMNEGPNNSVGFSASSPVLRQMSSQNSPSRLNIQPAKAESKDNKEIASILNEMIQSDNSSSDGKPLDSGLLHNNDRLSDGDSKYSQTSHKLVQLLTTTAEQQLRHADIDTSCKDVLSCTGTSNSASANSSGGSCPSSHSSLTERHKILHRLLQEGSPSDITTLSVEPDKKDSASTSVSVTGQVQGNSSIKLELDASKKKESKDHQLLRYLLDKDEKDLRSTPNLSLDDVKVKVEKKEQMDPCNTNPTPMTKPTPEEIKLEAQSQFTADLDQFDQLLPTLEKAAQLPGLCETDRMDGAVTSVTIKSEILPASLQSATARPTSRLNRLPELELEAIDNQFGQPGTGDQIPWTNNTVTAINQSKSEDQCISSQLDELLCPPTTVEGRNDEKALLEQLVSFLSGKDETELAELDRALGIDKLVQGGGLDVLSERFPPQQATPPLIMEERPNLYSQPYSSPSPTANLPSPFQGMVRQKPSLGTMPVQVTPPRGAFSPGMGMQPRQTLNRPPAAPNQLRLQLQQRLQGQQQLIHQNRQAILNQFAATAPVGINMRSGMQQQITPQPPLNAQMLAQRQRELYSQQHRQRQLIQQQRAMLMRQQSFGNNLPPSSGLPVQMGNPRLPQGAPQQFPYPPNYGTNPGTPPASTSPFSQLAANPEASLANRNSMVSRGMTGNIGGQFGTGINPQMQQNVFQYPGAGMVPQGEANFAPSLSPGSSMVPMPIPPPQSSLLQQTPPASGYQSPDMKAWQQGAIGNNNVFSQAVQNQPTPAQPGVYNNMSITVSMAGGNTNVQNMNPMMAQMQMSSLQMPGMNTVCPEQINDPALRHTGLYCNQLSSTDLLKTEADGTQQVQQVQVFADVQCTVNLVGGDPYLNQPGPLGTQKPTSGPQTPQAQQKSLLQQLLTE
Peroxisome proliferator-activated receptor gamma/Nuclear receptor coactivator 3, sequence (P37231 whole entry): as the sequence (P37231 whole entry) above
Peroxisome proliferator-activated receptor gamma/Nuclear receptor coactivator 3, sequence (Q9Y6Q9 whole entry, further chain): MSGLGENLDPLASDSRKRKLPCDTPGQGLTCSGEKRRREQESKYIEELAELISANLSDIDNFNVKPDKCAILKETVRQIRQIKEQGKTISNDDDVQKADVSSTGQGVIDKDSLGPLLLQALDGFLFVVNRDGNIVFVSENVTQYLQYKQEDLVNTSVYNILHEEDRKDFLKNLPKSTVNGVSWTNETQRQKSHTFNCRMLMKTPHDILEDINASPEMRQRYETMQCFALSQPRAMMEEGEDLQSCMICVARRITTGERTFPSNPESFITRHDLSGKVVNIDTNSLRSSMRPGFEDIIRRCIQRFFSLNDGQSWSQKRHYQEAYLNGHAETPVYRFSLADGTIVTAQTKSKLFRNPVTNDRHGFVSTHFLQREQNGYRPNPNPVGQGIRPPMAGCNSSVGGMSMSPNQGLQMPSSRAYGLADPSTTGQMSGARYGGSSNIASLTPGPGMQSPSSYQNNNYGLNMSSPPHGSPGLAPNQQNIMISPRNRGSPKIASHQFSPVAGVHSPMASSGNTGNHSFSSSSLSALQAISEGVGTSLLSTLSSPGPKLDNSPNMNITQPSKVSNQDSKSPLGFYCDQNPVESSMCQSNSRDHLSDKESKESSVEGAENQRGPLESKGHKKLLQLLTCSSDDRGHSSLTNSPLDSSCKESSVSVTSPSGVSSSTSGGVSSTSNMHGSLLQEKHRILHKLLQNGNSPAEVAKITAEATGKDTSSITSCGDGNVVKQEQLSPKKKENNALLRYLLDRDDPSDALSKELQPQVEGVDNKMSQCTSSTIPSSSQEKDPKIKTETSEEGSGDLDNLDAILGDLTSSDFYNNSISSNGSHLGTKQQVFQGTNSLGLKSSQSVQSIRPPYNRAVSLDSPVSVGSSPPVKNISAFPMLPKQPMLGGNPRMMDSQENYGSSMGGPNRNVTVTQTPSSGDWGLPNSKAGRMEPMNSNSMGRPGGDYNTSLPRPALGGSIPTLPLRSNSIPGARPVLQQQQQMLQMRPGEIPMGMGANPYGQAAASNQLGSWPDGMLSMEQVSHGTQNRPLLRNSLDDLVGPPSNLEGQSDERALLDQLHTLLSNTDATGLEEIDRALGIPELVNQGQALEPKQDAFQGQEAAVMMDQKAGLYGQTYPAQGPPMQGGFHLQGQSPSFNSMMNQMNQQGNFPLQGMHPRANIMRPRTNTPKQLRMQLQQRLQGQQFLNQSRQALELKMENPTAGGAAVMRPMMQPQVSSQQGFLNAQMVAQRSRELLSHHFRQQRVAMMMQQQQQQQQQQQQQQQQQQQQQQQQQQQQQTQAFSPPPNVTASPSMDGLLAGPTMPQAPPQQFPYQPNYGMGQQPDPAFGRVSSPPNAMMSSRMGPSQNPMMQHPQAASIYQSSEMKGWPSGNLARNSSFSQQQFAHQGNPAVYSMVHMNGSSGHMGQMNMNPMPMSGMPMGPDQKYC
Cytochrome P450 2C9, sequence (P11712 whole entry): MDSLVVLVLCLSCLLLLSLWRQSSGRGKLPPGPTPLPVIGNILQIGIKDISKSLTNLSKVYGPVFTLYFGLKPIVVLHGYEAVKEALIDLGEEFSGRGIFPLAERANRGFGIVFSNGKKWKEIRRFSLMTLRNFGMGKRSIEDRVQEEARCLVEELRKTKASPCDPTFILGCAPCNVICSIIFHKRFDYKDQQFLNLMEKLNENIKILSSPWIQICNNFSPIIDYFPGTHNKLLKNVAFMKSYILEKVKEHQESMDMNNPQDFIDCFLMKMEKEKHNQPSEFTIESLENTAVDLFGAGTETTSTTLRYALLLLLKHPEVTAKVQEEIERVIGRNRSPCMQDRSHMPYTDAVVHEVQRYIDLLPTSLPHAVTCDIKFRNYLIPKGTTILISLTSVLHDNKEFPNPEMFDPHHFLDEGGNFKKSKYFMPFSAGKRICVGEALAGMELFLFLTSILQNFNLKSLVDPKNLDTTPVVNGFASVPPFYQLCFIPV

For `Cc1ccc(-c2csc(NC(=O)c3cc([N+](=O)[O-])ccc3N3CCOCC3)n2)cc1`, the EC50 [1] was > 79.4 µM (not active), the EC50 [2] was > 79.4 µM (not active) and the EC50 [3] was > 79.4 µM (not active).

With `Oc1nc2ccccc2c2oc(CCl)nc12` the CC50 [4] was 20.1 µM (active), the CC50 [5] was 7.46 µM (active) and the CC50 [6] was 12.9 µM (active). For the same molecule, the IC50 [7] was 3.25 µM (active).

In the case of `COC(=O)c1cn(NC(=O)c2cnccn2)c(=O)c2ccccc12`, the CC50 [4] is reported as 24.2 µM (active), the EC50 [8] is reported as 8.3 µM (active) and the CC50 [5] is reported as 16.2 µM (active). The EC50 [9] was 9.08 µM (active) and the IC50 [7] was 9.07 µM (active).

In the case of `COc1ccc(/C=C(\C#N)C(=O)OCC(=O)NCc2ccccc2Cl)cc1`, the IC50 [10] is reported as 42.3 µM (active).

In the case of `CCc1nnc(NC(=O)COc2ccc(N(C)S(=O)(=O)c3ccc(C)cc3)cc2)s1`, the EC50 [11] is reported as > 29.9 µM (not active) and the EC50 [12] is reported as 3.27 µM (active).

For `COc1ccc(-c2nnc(-c3ccc(OCC(C)C)cc3)o2)cc1`, the AC50 [13] was 20 µM (inconclusive), the AC50 [14] was “inconclusive” and the AC50 [15] was 7.08 µM (inconclusive).

For `Cn1c(=O)c(Oc2cc(Cl)cc(Cl)c2)nc2ccccc21`, the EC50 [1] was 24.5 µM (not active), the EC50 [2] was 28.8 µM (not active) and the EC50 [3] was 21.1 µM (not active).

With `Cc1ccccc1OCC(=O)Nc1cc(S(=O)(=O)N2CCCCC2)ccc1N1CCN(C)CC1` the EC50 [11] was > 29.9 µM (not active), the EC50 [16] was > 60 µM (not active) and the EC50 [17] was 634 nM (active). The EC50 [12] was 5.43 µM (active).

In the case of `Nc1nc(N)c2cc(Sc3ccc4ccccc4c3)ccc2n1`, the EC50 [18] is reported as > 150 µM (inconclusive), the EC50 [19] is reported as 9.21 µM (active) and the AC50 [20] is reported as 7.99 µM (active). The IC50 [21] was 11.5 µM (active), the EC50 [22] was 2.96 µM (active) and the CC50 [23] was 800 nM (active). The IC50 [24] was > 20 µM (inactive), the IC50 [25] was > 20 µM (inactive) and the IC50 [26] was 5.21 µM (active). For the same molecule, the EC50 [27] was 1.38 µM (active), the EC50 [28] was 5.4 µM (inconclusive) and the EC50 [29] was > 20 µM (inactive). The EC50 [30] was 2.83 µM (active), the EC50 [31] was 148 nM (active) and the IC50 [32] was 3.67 µM (active). For the same molecule, the EC50 [33] was 2.06 µM (active).

In the case of `O=C(NCCCN1CCCC1)c1ccc(Cn2c(=S)[nH]c3ccc(Br)cc3c2=O)cc1`, the IC50 [24] is reported as 16.7 µM (active), the IC50 [34] is reported as > 20 µM (inactive) and the IC50 [35] is reported as > 20 µM (inactive).

In the case of `Cc1ccc(NC(=O)CC(=O)c2ccc([N+](=O)[O-])cc2)cc1S(=O)(=O)Nc1cccc(Cl)c1`, the IC50 [21] is reported as 7.05 µM (active), the IC50 [25] is reported as > 20 µM (inactive) and the IC50 [26] is reported as 9.19 µM (active). The EC50 [29] was 9.53 µM (active).

With `CCOC(=O)C1Cc2c([nH]c3ccccc23)CN1.Cl` (stereo unspecified) the AC50 [13] was 17.8 µM (inconclusive) and the AC50 [14] was “inconclusive”.

In the case of `Cc1ccc(Sc2ccc(/C=C3/C(=O)NN(c4ccccc4)C3=O)o2)cc1`, the IC50 [21] is reported as 7.56 µM (active), the IC50 [25] is reported as > 20 µM (inactive) and the IC50 [26] is reported as 18.2 µM (inactive). For the same molecule, the CC50 [6] was > 40 µM (active), the EC50 [29] was > 20 µM (inactive) and the IC50 [7] was 18.7 µM (active).
